Measurements as given in the supplement of paper PMC9663587.

What was measured:
AZD1775 = compound: C=CCn1c(=O)c2cnc(Nc3ccc(N4CCN(C)CC4)cc3)nc2n1-c1cccc(C(C)(C)O)n1 [AZD1775]
[1] = compound: CC(=O)Nc1cccc(-n2c(=O)n(C3CC3)c(=O)c3c(Nc4ccc(I)cc4F)n(C)c(=O)c(C)c32)c1
BVD523 = compound: CC(C)Nc1cc(-c2c[nH]c(C(=O)N[C@H](CO)c3cccc(Cl)c3)c2)c(Cl)cn1 [BVD523]
[2] = compound: CCCCOc1c(C(=O)c2c(F)cc(C)cc2F)c[nH]c2nncc1-2
THZ531 [3] = compound: T1, CN(C)C/C=C/C(=O)Nc1ccc(C(=O)N2CCC[C@@H](Nc3ncc(Cl)c(-c4c[nH]c5ccccc45)n3)C2)cc1 [THZ531]
THZ1 [4] = compound: T2, CN(C)C/C=C/C(=O)Nc1ccc(C(=O)Nc2cccc(Nc3ncc(Cl)c(-c4c[nH]c5ccccc45)n3)c2)cc1 [THZ1]
Saracatinib/AZD0530 = compound: CN1CCN(CCOc2cc(OC3CCOCC3)c3c(Nc4c(Cl)ccc5c4OCO5)ncnc3c2)CC1 [Saracatinib/AZD0530]
Rucaparib = compound: CNCc1ccc(-c2[nH]c3cc(F)cc4c3c2CCNC4=O)cc1 [Rucaparib]
[5] = compound: CO[C@@H](C)Cn1c(=O)n(C)c2cnc3ccc(-c4cncc(C(C)(C)O)c4)cc3c21
Cediranib/AZD2171 = compound: COc1cc2c(Oc3ccc4[nH]c(C)cc4c3F)ncnc2cc1OCCCN1CCCC1 [Cediranib/AZD2171]
[6] = compound: COc1ccc2c(c1)[C@]1(C[C@H]1c1ccc3c(/C=C/c4ccc(CN5C[C@@H](C)O[C@@H](C)C5)cc4)n[nH]c3c1)C(=O)N2
Alpelisib/BYL719 = compound: Cc1nc(NC(=O)N2CCC[C@H]2C(N)=O)sc1-c1ccnc(C(C)(C)C(F)(F)F)c1 [Alpelisib/BYL719]
YKL-5-124 = compound: C=CC(=O)Nc1ccc(C(=O)Nc2[nH]nc3c2CN(C(=O)N[C@H](CN(C)C)c2ccccc2)C3(C)C)cc1 [YKL-5-124]; experiment: increase in dead-cell fraction, 72 h; higher = more death;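 also: breast cancer cell lines in 384-well plates, stained with Hoechst plus LIVE/DEAD far red dye and imaged, cells above an LDR intensity threshold counted dead, Hoechst-negative corpses included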
BSJ-03-123 = compound: CC(=O)c1c(C)c2cnc(Nc3ccc(N4CCN(CCOCCOCCOCCNC(=O)COc5cccc6c5C(=O)N(C5CCC(=O)NC5=O)C6=O)CC4)cn3)nc2n(C2CCCC2)c1=O [BSJ-03-123]; experiment: as above
[7] = compound: CC(=O)c1c(C)c2cnc(Nc3ccc(N4CCNCC4)cn3)nc2n(C2CCCC2)c1=O; experiment: as above
Neratinib/HKI272 = compound: CCOc1cc2ncc(C#N)c(Nc3ccc(OCc4ccccn4)c(Cl)c3)c2cc1NC(=O)/C=C/CN(C)C [Neratinib/HKI272]; experiment: as above
[8] = compound: CCc1cnn2c(NCc3ccc[n+]([O-])c3)cc(N3CCCC[C@H]3CCO)nc12; experiment: as above
LEE011/Ribociclib = compound: CN(C)C(=O)c1cc2cnc(Nc3ccc(N4CCNCC4)cn3)nc2n1C1CCCC1 [LEE011/Ribociclib]; experiment: as above
THZ531 [9] = compound: T1, THZ531; experiment: as above
THZ1 [10] = compound: T2, THZ1; experiment: as above
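For GR50, 72 h in this document: breast cancer and non-malignant breast epithelial cell lines, Deep Dye Drop or Dye Drop imaging, nine half-log doses, GR normalized to time-zero plates and DMSO-only controls.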

What does the source list for MDAMB175VII?
GR50, 72 h (AZD1775): 0.0486 µM; GR50, 72 h [1]: 0.00195 µM; GR50, 72 h (BVD523): 0.255 µM; GR50, 72 h [2]: 0.00153 µM; GR50, 72 h (THZ531 [3]): 0.0409 µM; GR50, 72 h (THZ1 [4]): 0.0271 µM; GR50, 72 h (Saracatinib/AZD0530): 0.0646 µM; GR50, 72 h (Rucaparib): > 10 µM; GR50, 72 h [5]: < 0.001 µM; GR50, 72 h (Cediranib/AZD2171): 4.54 µM; GR50, 72 h [6]: 0.00391 µM; GR50, 72 h (Alpelisib/BYL719): 0.154 µM; increase in dead-cell fraction (YKL-5-124; 0.001 µM): 0.0167; increase in dead-cell fraction (YKL-5-124; 0.003162 µM): 0.0032; increase in dead-cell fraction (YKL-5-124; 0.01 µM): 0.0173; increase in dead-cell fraction (YKL-5-124; 0.03162 µM): 0.0139; increase in dead-cell fraction (YKL-5-124; 0.1 µM): 0.0095; increase in dead-cell fraction (YKL-5-124; 0.3162 µM): 0.0149; increase in dead-cell fraction (YKL-5-124; 1 µM): 0.0069; increase in dead-cell fraction (YKL-5-124; 3.162 µM): 0.0133; increase in dead-cell fraction (YKL-5-124; 10 µM): 0.285; increase in dead-cell fraction (BSJ-03-123; 0.001 µM): 0.0049; increase in dead-cell fraction (BSJ-03-123; 0.003162 µM): 0.0003; increase in dead-cell fraction (BSJ-03-123; 0.01 µM): 0.0001; increase in dead-cell fraction (BSJ-03-123; 0.03162 µM): 0.0082; increase in dead-cell fraction (BSJ-03-123; 0.1 µM): 0.0009; increase in dead-cell fraction (BSJ-03-123; 0.3162 µM): 0.0035; increase in dead-cell fraction (BSJ-03-123; 1 µM): 0.0093; increase in dead-cell fraction (BSJ-03-123; 3.162 µM): 0.009; increase in dead-cell fraction (BSJ-03-123; 10 µM): 0.0139; increase in dead-cell fraction ([7]; 0.0003162 µM): 0.0035; increase in dead-cell fraction ([7]; 0.001 µM): 0.0034; increase in dead-cell fraction ([7]; 0.003162 µM): -0.0018; increase in dead-cell fraction ([7]; 0.01 µM): 0.0077; increase in dead-cell fraction ([7]; 0.03162 µM): 0.0116; increase in dead-cell fraction ([7]; 0.1 µM): 0.0214; increase in dead-cell fraction ([7]; 0.3162 µM): 0.0115; increase in dead-cell fraction ([7]; 1 µM): 0.0097; increase in dead-cell fraction ([7]; 3.162 µM): 0.0212; increase in dead-cell fraction (Neratinib/HKI272; 0.0003162 µM): -0.0063; increase in dead-cell fraction (Neratinib/HKI272; 0.001 µM): -0.0069; increase in dead-cell fraction (Neratinib/HKI272; 0.003162 µM): 0.0132; increase in dead-cell fraction (Neratinib/HKI272; 0.01 µM): 0.0578; increase in dead-cell fraction (Neratinib/HKI272; 0.03162 µM): 0.214; increase in dead-cell fraction (Neratinib/HKI272; 0.1 µM): 0.276; increase in dead-cell fraction (Neratinib/HKI272; 0.3162 µM): 0.406; increase in dead-cell fraction (Neratinib/HKI272; 1 µM): 0.44; increase in dead-cell fraction (Neratinib/HKI272; 3.162 µM): 0.49; increase in dead-cell fraction ([8]; 0.0001 µM): -0.004; increase in dead-cell fraction ([8]; 0.0003162 µM): -0.0015; increase in dead-cell fraction ([8]; 0.001 µM): -0.0018; increase in dead-cell fraction ([8]; 0.003162 µM): -0.0039; increase in dead-cell fraction ([8]; 0.01 µM): 0.001; increase in dead-cell fraction ([8]; 0.03162 µM): 0.116; increase in dead-cell fraction ([8]; 0.1 µM): 0.0618; increase in dead-cell fraction ([8]; 0.3162 µM): 0.0494; increase in dead-cell fraction ([8]; 1 µM): 0.0562; increase in dead-cell fraction (LEE011/Ribociclib; 0.001 µM): 0.0066; increase in dead-cell fraction (LEE011/Ribociclib; 0.003162 µM): 0.0124; increase in dead-cell fraction (LEE011/Ribociclib; 0.01 µM): 0.0047; increase in dead-cell fraction (LEE011/Ribociclib; 0.03162 µM): 0.0118; increase in dead-cell fraction (LEE011/Ribociclib; 0.1 µM): 0.0182; increase in dead-cell fraction (LEE011/Ribociclib; 0.3162 µM): 0.0102; increase in dead-cell fraction (LEE011/Ribociclib; 1 µM): 0.0154; increase in dead-cell fraction (LEE011/Ribociclib; 3.162 µM): 0.0181; increase in dead-cell fraction (LEE011/Ribociclib; 10 µM): 0.0148; increase in dead-cell fraction (THZ531 [9]; 0.0001 µM): 0.0053; increase in dead-cell fraction (THZ531 [9]; 0.0003162 µM): 0.0019; increase in dead-cell fraction (THZ531 [9]; 0.001 µM): 0.0075; increase in dead-cell fraction (THZ531 [9]; 0.003162 µM): 0.0041; increase in dead-cell fraction (THZ531 [9]; 0.01 µM): 0.0043; increase in dead-cell fraction (THZ531 [9]; 0.03162 µM): 0.0033; increase in dead-cell fraction (THZ531 [9]; 0.1 µM): 0.105; increase in dead-cell fraction (THZ531 [9]; 0.3162 µM): 0.231; increase in dead-cell fraction (THZ531 [9]; 1 µM): 0.0668; increase in dead-cell fraction (THZ1 [10]; 0.0001 µM): 0.0012; increase in dead-cell fraction (THZ1 [10]; 0.0003162 µM): -0.0011; increase in dead-cell fraction (THZ1 [10]; 0.001 µM): -0.0032; increase in dead-cell fraction (THZ1 [10]; 0.003162 µM): -0.0005; increase in dead-cell fraction (THZ1 [10]; 0.01 µM): 0.0034; increase in dead-cell fraction (THZ1 [10]; 0.03162 µM): 0.0153; increase in dead-cell fraction (THZ1 [10]; 0.1 µM): 0.0349; increase in dead-cell fraction (THZ1 [10]; 0.3162 µM): 0.0573; increase in dead-cell fraction (THZ1 [10]; 1 µM): 0.0912
